Some test systems named below: DMS 273 small cell lung; XF 498 CNS; DLD-1 colon; DMS 114 small cell lung; P388 leukemia; SNB-78 CNS; P388/ADR leukemia; SN12K1 renal; HOP-18 NSCLC; LXFL 529 NSCLC; RXF-631 renal.
Holding throughout (assay): NCI tumour cell line growth inhibition, 48 h

Several values for one entry are separate records, joined by “and”; a condition that tells them apart may be missing. Equal entries are not always repeated.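 Following 48 hours of exposure in 96-well plates, responses at five concentrations were used to interpolate endpoints linearly. The concentration for 50% growth inhibition is given as GI50. TGI: total growth inhibition.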

As to `CC[C@@]1(O)CC(OC2CC(N3CCOCC3)C(O)C(C)O2)c2c(O)c3c(c(O)c2[C@H]1O)C(=O)c1cccc(O)c1C3=O` (stereo partly specified), the GI50 was 18 nM with DMS 273 small cell lung; 34.1 nM in the test with XF 498 CNS; 32.4 nM in the test with DLD-1 colon; 52.5 nM with DMS 114 small cell lung; 0.000179 nM in the test on P388 leukemia; 640 nM with SNB-78 CNS. The GI50 in the test on P388/ADR leukemia was 4.4 nM; in the test with SN12K1 renal, 15.3 nM and 10.2 nM. The TGI in the test with DMS 273 small cell lung was 1100 nM and 393 nM; in the test on XF 498 CNS it was 278 nM and 362 nM; in the test with DLD-1 colon it was 2780 nM and 3200 nM; in the test with DMS 114 small cell lung it was 968 nM and 1080 nM; with P388 leukemia it was 1080 nM and 799 nM; in the test on SNB-78 CNS it was 2830 nM and 24300 nM. In addition, the TGI in the test with P388/ADR leukemia was 2940 nM and 770 nM; with SN12K1 renal, 403 nM and 297 nM.

Turning to `N#CC1(CCCI)CCCC1`, the TGI with HOP-18 NSCLC was 36300 nM; in the test on LXFL 529 NSCLC, more than 100000 nM; in the test on DMS 273 small cell lung it was more than 100000 nM; in the test with XF 498 CNS, 47300 nM; with DLD-1 colon, more than 100000 nM; in the test with DMS 114 small cell lung, 25300 nM. Besides, the TGI worked out at 3230 nM with RXF-631 renal and 38300 nM in the test with SNB-78 CNS.

In the case of `C=C(CN(C)C)C(=O)c1ccccc1OC`, the TGI in the test with HOP-18 NSCLC turned out to be 20200 nM; in the test on LXFL 529 NSCLC, 11500 nM; with DMS 273 small cell lung, 34000 nM; in the test with XF 498 CNS, 32300 nM; in the test on DLD-1 colon, 14200 nM; in the test on DMS 114 small cell lung it was 42500 nM. Besides, the TGI in the test on SNB-78 CNS was 62800 nM.
